These results are taken from patent US11479539B2, “Small molecule modulators of the BTB domain of Keap1” (MedImmune Limited, priority 2017, dated 2022).

As usually defined, the EC50 is the midpoint of the concentration-response curve. A higher EC50 goes with a less potent agent.

This test has as its target Keap1 (Homo sapiens (Human), UniProt Q14145). As to the kind of experiment: HEK293 ARE luciferase assay. To be noted: HEK-293 ARE firefly luciferase transiently transfected cells; 18 h incubation; mean of 1 to 20 individual measurements. Format: cell-based. Put shortly:
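Keap1 inhibition read as Nrf2-driven luciferase rise: compounds dosed in 10 points up to 100 μM (0.3% DMSO) on HEK-293 ARE luciferase cells, 10,000/well, 18 h at 37 °C, then SteadyGlo luminescence. Scaled between DMSO vehicle and 30 μM tBHQ; values average 1-20 runs.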

The structures appear in SMILES notation.

Keap1, sequence (Q14145 whole entry): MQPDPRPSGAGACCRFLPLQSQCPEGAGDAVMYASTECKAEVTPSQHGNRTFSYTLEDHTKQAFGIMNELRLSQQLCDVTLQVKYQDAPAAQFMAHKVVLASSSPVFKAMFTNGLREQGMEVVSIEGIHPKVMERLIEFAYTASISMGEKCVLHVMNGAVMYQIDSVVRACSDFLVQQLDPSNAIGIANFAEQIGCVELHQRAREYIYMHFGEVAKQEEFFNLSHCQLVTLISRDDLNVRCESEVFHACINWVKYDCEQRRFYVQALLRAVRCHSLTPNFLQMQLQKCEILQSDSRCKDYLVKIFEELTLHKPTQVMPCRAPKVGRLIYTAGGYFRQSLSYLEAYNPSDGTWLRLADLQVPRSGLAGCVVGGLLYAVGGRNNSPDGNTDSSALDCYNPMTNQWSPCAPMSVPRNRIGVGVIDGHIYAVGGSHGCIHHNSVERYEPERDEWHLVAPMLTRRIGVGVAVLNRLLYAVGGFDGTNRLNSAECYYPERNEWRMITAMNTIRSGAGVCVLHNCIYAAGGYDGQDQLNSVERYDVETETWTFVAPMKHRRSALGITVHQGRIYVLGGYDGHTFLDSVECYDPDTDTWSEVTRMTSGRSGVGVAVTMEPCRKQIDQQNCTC

Compound `COC1(c2ccccn2)C=C(C#N)C(=O)C2(CC2)C1` (single isomer, unassigned) [Compound 56, 7-methoxy-4-oxo-7-(pyridin-2-yl)spiro[2.5]oct-5-ene-5-carbonitrile] returned a concentration for a half-maximal effect (EC50) of 0.179 µM. This counts as sub-micromolar. As to `COC1(c2ncc(F)cc2-c2cncc(F)c2)C=C(C#N)C(=O)C(C)(C)C1` (single isomer, unassigned) [Compound 84, 3-[5-fluoro-3-(5-fluoro-3-pyridyl)-2-pyridyl]-3-methoxy-5,5-dimethyl-6-oxo-cyclohexene-1-carbonitrile], the EC50 came to 0.006 µM. Compound `COC1(c2cccc(-c3ccnn3C)n2)C=C(C#N)C(=O)C(C)(C)C1` (stereo not drawn) [Compound 106, 3-methoxy-5,5-dimethyl-3-(6-(1-methyl-1H-pyrazol-5-yl)pyridin-2-yl)-6-oxocyclohex-1-ene-1-carbonitrile] had an EC50 of 0.12 µM. To `COC1(c2ncc(F)cc2F)C=C(C#N)C(=O)C(C)(C)C1` (stereo not drawn) [Compound 28, 3-(3,5-difluoropyridin-2-yl)-3-methoxy-5,5-dimethyl-6-oxocyclohex-1-enecarbonitrile] belongs 0.036 µM; to `COC1(c2ncc(F)cc2-c2ccc(=O)n(C)c2)C=C(C#N)C(=O)C(C)(C)C1` (stereo not drawn) [Compound 167, 3-(5-fluoro-1′-methyl-6′-oxo[1′,6′-dihydro[3,3′-bipyridine]]-2-yl)-3-methoxy-5,5-dimethyl-6-oxocyclohex-1-ene-1-carbonitrile], 0.018 µM; to `C/C=C/c1cc(F)cnc1C1(OC)C=C(C#N)C(=O)C(C)(C)C1` (stereo not drawn) [Compound 176, 3-{5-fluoro-3-[(1E)-prop-1-en-1-yl]pyridin-2-yl}-3-methoxy-5,5-dimethyl-6-oxocyclohex-1-ene-1-carbonitrile], 0.019 µM. Compound `COC1(c2ncccc2C(F)F)C=C(C#N)C(=O)C(C)(C)C1` (stereo not drawn) [Compound 124, 3-[3-(difluoromethyl)pyridin-2-yl]-3-methoxy-5,5-dimethyl-6-oxocyclohex-1-ene-1-carbonitrile] gave an EC50 of 0.027 µM.

`COC1(c2nc(C)c(-c3ccccn3)s2)C=C(C#N)C(=O)C2(CC2)C1` (stereo not drawn) [Compound 194, 7-methoxy-7-[4-methyl-5-(pyridin-2-yl)-1,3-thiazol-2-yl]-4-oxospiro[2.5]oct-5-ene-5-carbonitrile]: the concentration giving a half-maximal response (EC50) came to 0.203 µM. The same measure for `COC1(c2ncc(F)cc2-c2ccc3nc(C)cn3c2)C=C(C#N)C(=O)C(C)(C)C1` (single isomer, unassigned) [Compound 201, 3-[5-fluoro-3-(2-methylimidazo[1,2-a]pyridin-6-yl)pyridin-2-yl]-3-methoxy-5,5-dimethyl-6-oxocyclohex-1-ene-1-carbonitrile]: 0.182 µM; for `COC1(c2ncc(F)cc2-c2ccn3nc(C)nc3c2)C=C(C#N)C(=O)C(C)(C)C1` (single isomer, unassigned) [Compound 229, 3-[5-fluoro-3-(2-methyl[1,2,4]triazolo[1,5-a]pyridin-7-yl)pyridin-2-yl]-3-methoxy-5,5-dimethyl-6-oxocyclohex-1-ene-1-carbonitrile]: 0.01 µM. The compound `COC1(c2ccc(Cl)cn2)C=C(C#N)C(=O)C(C)(C)C1` (single isomer, unassigned) [Compound 32, 3-(5-chloropyridin-2-yl)-3-methoxy-5,5-dimethyl-6-oxocyclohex-1-enecarbonitrile] registered an EC50 of 0.055 µM. With `COC1(c2ccc(C)nc2)C=C(C#N)C(=O)C(C)(C)C1` (stereo not drawn) [Compound 16, 3-methoxy-5,5-dimethyl-3-(6-methyl-3-pyridyl)-6-oxo-cyclohexene-1-carbonitrile], the EC50 was 0.66 µM. For `CCCc1cccnc1C1(OC)C=C(C#N)C(=O)C(C)(C)C1` (single isomer, unassigned) [Compound 101, 3-methoxy-5,5-dimethyl-6-oxo-3-(3-propylpyridin-2-yl)cyclohex-1-ene-1-carbonitrile], the half-maximal effective concentration (EC50) was 0.033 µM. To `COC1(c2ncc(F)cc2-c2cnn(-c3ccccc3)c2)C=C(C#N)C(=O)C(C)(C)C1` (stereo not drawn) [Compound 179, 3-[5-fluoro-3-(1-phenyl-1H-pyrazol-4-yl)pyridin-2-yl]-3-methoxy-5,5-dimethyl-6-oxocyclohex-1-ene-1-carbonitrile] belongs 0.007 µM; to `COC1(c2ncc(F)cc2-c2cccnc2C)C=C(C#N)C(=O)C(C)(C)C1` (stereo not drawn) [Compound 177, 3-(5-fluoro-2′-methyl[3,3′-bipyridin]-2-yl)-3-methoxy-5,5-dimethyl-6-oxocyclohex-1-ene-1-carbonitrile], 0.103 µM. The compound `COC1(c2nc(C)cs2)C=C(C#N)C(=O)C(C)(C)C1` (single isomer, unassigned) [Compound 36, 3-methoxy-5,5-dimethyl-3-(4-methylthiazol-2-yl)-6-oxocyclohex-1-enecarbonitrile] came in with an EC50 of 0.096 µM.

As for `COC1(c2ncccc2Cl)C=C(C#N)C(=O)C(C)(C)C1` (stereo not drawn) [Compound 114, 3-(3-chloropyridin-2-yl)-3-methoxy-5,5-dimethyl-6-oxocyclohex-1-ene-1-carbonitrile], the EC50 was found to be 0.235 µM. This EC50 lies about 2.4-fold higher than the previous one. To `CCc1cncc(-c2cc(F)cnc2C2(OC)C=C(C#N)C(=O)C(C)(C)C2)c1` (single isomer, unassigned) [Compound 233, 3-(5′-ethyl-5-fluoro[3,3′-bipyridin]-2-yl)-3-methoxy-5,5-dimethyl-6-oxocyclohex-1-ene-1-carbonitrile] belongs 0.006 µM; to `COC1(c2ncc(F)cc2-c2ccnc(C)c2)C=C(C#N)C(=O)C(C)(C)C1` (stereo not drawn) [Compound 170, 3-(5-fluoro-2′-methyl[3,4′-bipyridin]-2-yl)-3-methoxy-5,5-dimethyl-6-oxocyclohex-1-ene-1-carbonitrile], 0.012 µM. Regarding `COC1(c2ncc(F)cc2-c2cnnc(C)c2)C=C(C#N)C(=O)C(C)(C)C1` (single isomer, unassigned) [Compound 209, 3-[5-fluoro-3-(6-methylpyridazin-4-yl)pyridin-2-yl]-3-methoxy-5,5-dimethyl-6-oxocyclohex-1-ene-1-carbonitrile], the EC50 was 0.015 µM. In turn, `COC1(c2ncc(F)cc2-c2cncc(S(C)(=O)=O)c2)C=C(C#N)C(=O)C(C)(C)C1` (stereo not drawn) [Compound 96, 3-(5-fluoro-5′-(methylsulfonyl)-[3,3′-bipyridin]-2-yl)-3-methoxy-5,5-dimethyl-6-oxocyclohex-1-ene-1-carbonitrile] showed an EC50 of 0.007 µM. In turn, `COC1(c2ncccc2Br)C=C(C#N)C(=O)C(C)(C)C1` (stereo not drawn) [Compound 22, 3-(3-bromo-2-pyridyl)-3-methoxy-5,5-dimethyl-6-oxo-cyclohexene-1-carbonitrile] came in with a half-maximal effective concentration (EC50) of 0.045 µM. To `COC1(c2ncc(F)cc2-c2cnc(C(F)(F)F)nc2)C=C(C#N)C(=O)C(C)(C)C1` (single isomer, unassigned) [Compound 210, 3-{5-fluoro-3-[2-(trifluoromethyl)pyrimidin-5-yl]pyridin-2-yl}-3-methoxy-5,5-dimethyl-6-oxocyclohex-1-ene-1-carbonitrile] belongs 0.02 µM.

As for `COC1(c2cccc(-c3cnn(C)c3)n2)C=C(C#N)C(=O)C2(CC2)C1` (single isomer, unassigned) [Compound 49, 7-methoxy-7-(6-(1-methyl-1H-pyrazol-4-yl)pyridin-2-yl)-4-oxospiro[2.5]oct-5-ene-5-carbonitrile], the EC50 turned out to be 0.138 µM. Against the preceding compound, the EC50 is about 6.9-fold higher.

On to `CCOC1(c2ccc(F)cn2)C=C(C#N)C(=O)C(C)(C)C1` (single isomer, unassigned) [Compound 37, 3-ethoxy-3-(5-fluoropyridin-2-yl)-5,5-dimethyl-6-oxocyclohex-1-enecarbonitrile], for which the concentration giving a half-maximal response (EC50) came out at 0.086 µM.

The compound `COC1(c2ncc(F)cc2-c2c(C)nn(C)c2C)C=C(C#N)C(=O)C(C)(C)C1` (stereo not drawn) [Compound 189, 3-[5-fluoro-3-(1,3,5-trimethyl-1H-pyrazol-4-yl)pyridin-2-yl]-3-methoxy-5,5-dimethyl-6-oxocyclohex-1-ene-1-carbonitrile] showed an EC50 of 1.53 µM. `COC1(c2ncccc2C(F)F)C=C(C#N)C(=O)C2(CC2)C1` (stereo not drawn) [Compound 132, 7-[3-(difluoromethyl)pyridin-2-yl]-7-methoxy-4-oxospiro[2.5]oct-5-ene-5-carbonitrile] had an EC50 of 0.15 µM. `COc1cc(-c2cc(F)cnc2C2(OC)C=C(C#N)C(=O)C(C)(C)C2)c(Cl)cn1` (single isomer, unassigned) [Compound 218, 3-(5′-chloro-5-fluoro-2′-methoxy[3,4′-bipyridin]-2-yl)-3-methoxy-5,5-dimethyl-6-oxocyclohex-1-ene-1-carbonitrile] registered an EC50 of 0.023 µM. Against the preceding compound, the EC50 is about 6.5-fold lower. The same measure for `COC1(c2sc(C)nc2C)C=C(C#N)C(=O)C(C)(C)C1` (stereo not drawn) [Compound 46, 3-(2,4-dimethylthiazol-5-yl)-3-methoxy-5,5-dimethyl-6-oxocyclohex-1-enecarbonitrile]: 0.304 µM; for `COC1(c2ncc(Cl)cc2C(F)F)C=C(C#N)C(=O)C2(CC2)C1` (single isomer, unassigned) [Compound 238, 7-[5-chloro-3-(difluoromethyl)pyridin-2-yl]-7-methoxy-4-oxospiro[2.5]oct-5-ene-5-carbonitrile]: 0.044 µM; for `CC#Cc1cccc(C2(OC)C=C(C#N)C(=O)C(C)(C)C2)n1` (stereo not drawn) [Compound 103, 3-Methoxy-5,5-dimethyl-6-oxo-3-(6-(prop-1-ynyl)pyridin-2-yl)cyclohex-1-enecarbonitrile]: 0.077 µM. To `COC1(c2ncccc2C(F)(F)F)C=C(C#N)C(=O)C(C)(C)C1` (stereo not drawn) [Compound 122, 3-methoxy-5,5-dimethyl-6-oxo-3-[3-(trifluoromethyl)pyridin-2-yl]cyclohex-1-ene-1-carbonitrile] belongs 0.043 µM; to `COC1(c2ncc(F)cc2C#CC(C)C)C=C(C#N)C(=O)C(C)(C)C1` (single isomer, unassigned) [Compound 100, 3-[5-fluoro-3-(3-methylbut-1-yn-1-yl)pyridin-2-yl]-3-methoxy-5,5-dimethyl-6-oxocyclohex-1-ene-1-carbonitrile], 0.077 µM.
